Experimental data taken from the NIST ThermoML archive (doi:10.1016/j.jct.2014.07.018).
Where “and” joins values, the source holds several entries; their conditions need not be identical. Equal values may be shown once.

Assay: molar heat capacity at constant pressure
Settings: 101.33 kPa, Vacuum adiabatic calorimetry

CCC[n+]1ccn(C)c1.[Br-] [1-methyl-3-propylimidazolium bromide]
molar heat capacity at constant pressure
Settings	Crystal 2	Glass
5 K	0.294 J/K/mol	1 J/K/mol
5.52 K	0.401 J/K/mol	–
5.87 K	0.492 J/K/mol	–
6.21 K	0.596 J/K/mol	–
6.59 K	0.729 J/K/mol	–
6.61 K	–	2.26 J/K/mol
6.94 K	–	2.56 J/K/mol
6.97 K	0.883 J/K/mol	–
7.33 K	–	2.953 J/K/mol
7.35 K	1.057 J/K/mol	–
7.73 K	1.253 J/K/mol	–
7.74 K	–	3.376 J/K/mol
8.12 K	1.472 J/K/mol	–
8.14 K	–	3.817 J/K/mol
8.51 K	1.709 J/K/mol	–
8.55 K	–	4.303 J/K/mol
8.89 K	1.969 J/K/mol	–
8.96 K	–	4.799 J/K/mol
9.28 K	2.25 J/K/mol	–
9.37 K	–	5.312 J/K/mol
9.68 K	2.56 J/K/mol	–
9.78 K	–	5.854 J/K/mol
10 K	2.83 J/K/mol	6.16 J/K/mol
10.07 K	2.896 J/K/mol	–
10.19 K	–	6.42 J/K/mol
10.57 K	3.349 J/K/mol	–
10.71 K	–	7.156 J/K/mol
11.17 K	3.934 J/K/mol	–
11.34 K	–	8.069 J/K/mol
11.78 K	4.563 J/K/mol	–
11.96 K	–	9.014 J/K/mol
12.39 K	5.251 J/K/mol	–
12.59 K	–	10.01 J/K/mol
12.76 K	–	10.27 J/K/mol
13 K	5.972 J/K/mol	–
13.23 K	–	11.02 J/K/mol
13.27 K	–	11.09 J/K/mol
13.62 K	6.746 J/K/mol	–
13.86 K	–	12.06 J/K/mol
13.9 K	–	12.12 J/K/mol
14.24 K	7.548 J/K/mol	–
14.5 K	–	13.11 J/K/mol
14.53 K	–	13.18 J/K/mol
14.85 K	8.382 J/K/mol	–
15 K	8.58 J/K/mol	13.96 J/K/mol
15.17 K	–	14.27 J/K/mol
15.58 K	9.404 J/K/mol	–
15.96 K	–	15.61 J/K/mol
16.42 K	10.63 J/K/mol	–
16.9 K	–	17.24 J/K/mol
17.26 K	11.9 J/K/mol	–
17.83 K	–	18.9 J/K/mol
18.09 K	13.21 J/K/mol	–
18.77 K	–	20.57 J/K/mol
18.93 K	14.56 J/K/mol	–
19.7 K	–	22.25 J/K/mol
19.77 K	15.94 J/K/mol	–
20 K	16.31 J/K/mol	22.8 J/K/mol
20.91 K	17.83 J/K/mol	–
20.95 K	–	24.53 J/K/mol
22.33 K	20.27 J/K/mol	–
22.51 K	–	27.36 J/K/mol
23.77 K	22.77 J/K/mol	–
24.09 K	–	30.19 J/K/mol
25 K	24.9 J/K/mol	31.8 J/K/mol
25.2 K	25.25 J/K/mol	–
25.66 K	–	32.96 J/K/mol
26.63 K	27.75 J/K/mol	–
27.23 K	–	35.71 J/K/mol
28.07 K	30.25 J/K/mol	–
28.81 K	–	38.42 J/K/mol
29.52 K	32.71 J/K/mol	–
30 K	33.56 J/K/mol	40.46 J/K/mol
30.4 K	–	41.1 J/K/mol
31.17 K	35.56 J/K/mol	–
32.13 K	–	43.97 J/K/mol
33.03 K	38.66 J/K/mol	–
34.01 K	–	46.95 J/K/mol
34.89 K	41.68 J/K/mol	–
35 K	41.84 J/K/mol	48.45 J/K/mol
35.9 K	–	49.88 J/K/mol
36.76 K	44.57 J/K/mol	–
37.79 K	–	52.63 J/K/mol
38.63 K	47.38 J/K/mol	–
39.67 K	–	55.27 J/K/mol
40 K	49.44 J/K/mol	55.78 J/K/mol
40.49 K	50.15 J/K/mol	–
41.76 K	–	58.17 J/K/mol
42.5 K	53 J/K/mol	–
44.05 K	–	61.22 J/K/mol
44.67 K	55.99 J/K/mol	–
45 K	56.45 J/K/mol	62.48 J/K/mol
46.42 K	–	64.28 J/K/mol
46.85 K	58.9 J/K/mol	–
48.69 K	–	67.11 J/K/mol
49.03 K	61.73 J/K/mol	–
50 K	62.88 J/K/mol	68.62 J/K/mol
50.77 K	–	69.55 J/K/mol
51.21 K	64.4 J/K/mol	–
52.86 K	–	71.87 J/K/mol
53.39 K	66.92 J/K/mol	–
54.95 K	–	74.14 J/K/mol
55.57 K	69.38 J/K/mol	–
57.04 K	–	76.42 J/K/mol
57.75 K	71.78 J/K/mol	–
59.13 K	–	78.63 J/K/mol
59.93 K	74.14 J/K/mol	–
60 K	74.22 J/K/mol	79.52 J/K/mol
61.23 K	–	80.83 J/K/mol
62.13 K	76.42 J/K/mol	–
63.32 K	–	82.92 J/K/mol
64.33 K	78.63 J/K/mol	–
65.42 K	–	84.99 J/K/mol
66.53 K	80.71 J/K/mol	–
67.53 K	–	86.98 J/K/mol
68.72 K	82.68 J/K/mol	–
69.62 K	–	88.87 J/K/mol
70 K	83.84 J/K/mol	89.28 J/K/mol
70.92 K	84.56 J/K/mol	–
71.72 K	–	90.74 J/K/mol
73.18 K	86.57 J/K/mol	–
73.83 K	–	92.54 J/K/mol
75.5 K	88.58 J/K/mol	–
75.93 K	–	94.45 J/K/mol
77.81 K	90.59 J/K/mol	–
78.04 K	–	96.34 J/K/mol
78.3 K	90.96 J/K/mol	–
78.68 K	91.25 J/K/mol	–
79.18 K	–	97.3 J/K/mol
80 K	92.3 J/K/mol	97.87 J/K/mol
80.13 K	92.58 J/K/mol	–
80.17 K	–	98.2 J/K/mol
80.36 K	92.62 J/K/mol	–
80.94 K	93.01 J/K/mol	–
81.21 K	–	98.9 J/K/mol
82.27 K	94.04 J/K/mol	–
82.29 K	–	99.76 J/K/mol
82.46 K	94.26 J/K/mol	–
82.87 K	94.47 J/K/mol	–
83.14 K	–	100.3 J/K/mol
84.2 K	95.47 J/K/mol	–
84.42 K	–	101.2 J/K/mol
84.8 K	95.84 J/K/mol and 95.9 J/K/mol	–
85.07 K	–	101.7 J/K/mol
86.13 K	96.85 J/K/mol	–
86.73 K	97.28 J/K/mol	–
87.01 K	–	103.1 J/K/mol
88.08 K	98.24 J/K/mol	–
88.67 K	98.67 J/K/mol	–
88.94 K	–	104.6 J/K/mol
90 K	99.64 J/K/mol	105.4 J/K/mol
90.04 K	99.66 J/K/mol	–
90.6 K	100 J/K/mol	–
90.88 K	–	106 J/K/mol
92.01 K	101.1 J/K/mol	–
92.54 K	101.4 J/K/mol	–
92.82 K	–	107.4 J/K/mol
93.99 K	102.5 J/K/mol	–
94.48 K	102.8 J/K/mol	–
94.77 K	–	108.7 J/K/mol
95.98 K	103.8 J/K/mol	–
96.43 K	104.1 J/K/mol	–
96.72 K	–	110.1 J/K/mol
97.97 K	105.1 J/K/mol	–
98.38 K	105.4 J/K/mol	–
98.66 K	–	111.4 J/K/mol
99.98 K	106.5 J/K/mol	–
100 K	106.4 J/K/mol	112.3 J/K/mol
100.34 K	106.7 J/K/mol	–
100.62 K	–	112.7 J/K/mol
101.99 K	107.7 J/K/mol	–
102.29 K	107.9 J/K/mol	–
102.57 K	–	114 J/K/mol
104.01 K	109 J/K/mol	–
104.25 K	109.1 J/K/mol	–
104.53 K	–	115.3 J/K/mol
106.04 K	110.2 J/K/mol	–
106.21 K	110.3 J/K/mol	–
106.49 K	–	116.5 J/K/mol
108.08 K	111.5 J/K/mol	–
108.17 K	111.6 J/K/mol	–
108.45 K	–	117.8 J/K/mol
110 K	112.6 J/K/mol	118.7 J/K/mol
110.12 K	112.7 J/K/mol	–
110.14 K	112.7 J/K/mol	–
110.41 K	–	119 J/K/mol
112.1 K	113.9 J/K/mol	–
112.17 K	113.9 J/K/mol	–
112.38 K	–	120.2 J/K/mol
114.07 K	115 J/K/mol	–
114.22 K	115.1 J/K/mol	–
114.35 K	–	121.4 J/K/mol
116.04 K	116.2 J/K/mol	–
116.28 K	116.3 J/K/mol	–
116.32 K	–	122.6 J/K/mol
118.01 K	117.3 J/K/mol	–
118.29 K	–	123.8 J/K/mol
118.34 K	117.5 J/K/mol	–
119.98 K	118.4 J/K/mol	–
120 K	118.4 J/K/mol	124.8 J/K/mol
120.27 K	–	124.9 J/K/mol
120.41 K	118.7 J/K/mol	–
121.96 K	119.4 J/K/mol	–
122.24 K	–	126.1 J/K/mol
122.48 K	119.8 J/K/mol	–
123.94 K	120.6 J/K/mol	–
124.22 K	–	127.2 J/K/mol
124.56 K	121 J/K/mol	–
125.91 K	121.7 J/K/mol	–
126.2 K	–	128.4 J/K/mol
126.63 K	122.1 J/K/mol	–
127.9 K	122.8 J/K/mol	–
128.18 K	–	129.5 J/K/mol
128.72 K	123.2 J/K/mol	–
129.88 K	123.8 J/K/mol	–
130 K	123.9 J/K/mol	130.6 J/K/mol
130.17 K	–	130.7 J/K/mol
130.8 K	124.4 J/K/mol	–
131.86 K	124.9 J/K/mol	–
132.15 K	–	131.8 J/K/mol
132.89 K	125.5 J/K/mol	–
133.84 K	126 J/K/mol	–
134.14 K	–	132.9 J/K/mol
134.99 K	126.6 J/K/mol	–
135.84 K	127 J/K/mol	–
136.13 K	–	134 J/K/mol
137.08 K	127.7 J/K/mol	–
137.83 K	128 J/K/mol	–
138.12 K	–	135.2 J/K/mol
139.18 K	128.7 J/K/mol	–
139.83 K	129.1 J/K/mol	–
140 K	129.2 J/K/mol	136.2 J/K/mol
140.12 K	–	136.3 J/K/mol
141.28 K	129.8 J/K/mol	–
141.83 K	130.1 J/K/mol	–
142.11 K	–	137.4 J/K/mol
143.39 K	130.9 J/K/mol	–
143.83 K	131.1 J/K/mol	–
144.11 K	–	138.5 J/K/mol
145.49 K	132 J/K/mol	–
145.83 K	132.1 J/K/mol	–
146.11 K	–	139.7 J/K/mol
147.6 K	133 J/K/mol	–
